The source of these data is ChEMBL document CHEMBL4229446, “Development of Novel Monoamine Oxidase-B (MAO-B) Inhibitors with Reduced Blood-Brain Barrier Permeability for the Potential Management of Noncentral Nervous System (CNS) Diseases” (J Med Chem, 2018).

By IC50 is commonly meant the point on the concentration scale where inhibition reaches its midpoint.

Structures are written as SMILES.

For one assay, the target named is T1, Amine oxidase [flavin-containing] A (Homo sapiens, UniProt P21397).
T1 sequence (P21397 whole entry): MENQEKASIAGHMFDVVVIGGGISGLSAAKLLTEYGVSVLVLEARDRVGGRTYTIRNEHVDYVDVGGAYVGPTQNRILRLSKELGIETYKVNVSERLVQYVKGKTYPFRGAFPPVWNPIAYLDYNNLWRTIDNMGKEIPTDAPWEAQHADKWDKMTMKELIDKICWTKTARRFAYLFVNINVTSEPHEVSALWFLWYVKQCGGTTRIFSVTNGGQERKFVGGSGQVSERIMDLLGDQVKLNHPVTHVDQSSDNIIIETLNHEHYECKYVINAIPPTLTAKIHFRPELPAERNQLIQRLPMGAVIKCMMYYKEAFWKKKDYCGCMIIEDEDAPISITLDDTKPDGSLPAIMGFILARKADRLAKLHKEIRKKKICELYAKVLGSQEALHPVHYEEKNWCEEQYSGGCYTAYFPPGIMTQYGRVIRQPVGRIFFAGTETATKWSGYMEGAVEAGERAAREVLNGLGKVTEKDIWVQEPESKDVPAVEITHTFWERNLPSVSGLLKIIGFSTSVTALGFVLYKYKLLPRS
Description: Inhibition of human recombinant MAO-A expressed in baculovirus infected BTI-TN-5B1-4 insect cells using tyramine as substrate preincubated for 1 hr followed by substrate addition and measured after 30 mins by resazurin dye-based fluorescence assay.
In the case of `C[C@H](Cc1ccc(OCc2cccc(F)c2)cc1)N(C)CC(=O)O`, the IC50 is greater than 50 µM.

On to `CN(CC(=O)O)[C@H](CC#N)Cc1ccc(OCc2ccccc2)cc1`, for which the IC50 was greater than 50 µM.

In the case of `CN(CC(=O)O)[C@H](CO)Cc1ccc(OCc2ccccc2)cc1`, the concentration for half-maximal inhibition (IC50) is greater than 50 µM.

Regarding `C[C@H](Cc1ccc(OCc2cc(F)cc(F)c2)cc1)N(C)CC(=O)O`, the IC50 was greater than 50 µM.

For the molecule `C[C@H](Cc1ccc(OCc2ccccc2Cl)cc1)N(C)CC(=O)O`, the IC50 was greater than 50 µM.

Take `C[C@H](Cc1ccc(OCc2ccncc2)cc1)N(C)CC(=O)O`: the IC50 was greater than 50 µM.

For `C[C@H](Cc1ccc(OCc2cccc([N+](=O)[O-])c2)cc1)N(C)CC(=O)O`, the 50% inhibitory concentration (IC50) was greater than 50 µM.

As to `COC(=O)[C@H](Cc1ccc(OCc2ccccc2)cc1)N(C)CC(=O)O`, the IC50 was greater than 50 µM.

With `COC(=O)c1ccc(COc2ccc(C[C@@H](C)N(C)CC(=O)O)cc2)cc1`, the IC50 was greater than 50 µM.

On to `C[C@H](Cc1ccc(OCc2ccccc2)cc1)N(C)CC(=O)O`, for which the IC50 was greater than 50 µM.

The target in a further assay is T2, Amine oxidase [flavin-containing] B (Homo sapiens, UniProt P27338).
T2 sequence (P27338 whole entry): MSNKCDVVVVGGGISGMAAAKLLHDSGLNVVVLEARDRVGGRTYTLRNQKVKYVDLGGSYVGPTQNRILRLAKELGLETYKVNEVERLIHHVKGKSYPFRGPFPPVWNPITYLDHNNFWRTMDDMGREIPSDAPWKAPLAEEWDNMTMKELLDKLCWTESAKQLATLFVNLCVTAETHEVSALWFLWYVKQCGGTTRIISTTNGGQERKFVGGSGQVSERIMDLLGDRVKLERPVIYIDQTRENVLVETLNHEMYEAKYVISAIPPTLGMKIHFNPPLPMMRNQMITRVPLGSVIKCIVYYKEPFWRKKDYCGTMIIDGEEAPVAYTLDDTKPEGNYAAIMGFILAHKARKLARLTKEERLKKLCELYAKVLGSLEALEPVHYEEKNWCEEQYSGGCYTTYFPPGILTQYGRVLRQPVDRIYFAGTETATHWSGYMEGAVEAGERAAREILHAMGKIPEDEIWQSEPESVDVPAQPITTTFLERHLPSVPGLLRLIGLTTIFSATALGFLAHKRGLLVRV
Description: Inhibition of human recombinant MAO-B expressed in baculovirus infected BTI-TN-5B1-4 insect cells using benzylamine as substrate preincubated for 1 hr followed by substrate addition and measured after 30 mins by resazurin dye-based fluorescence assay. Type of assay: cell-based.
Consider `C[C@H](Cc1ccc(OCc2ccc3ccccc3c2)cc1)N(C)CC(=O)O`, for which the IC50 is 14.2 µM.

On to `COc1cccc(COc2ccc(C[C@@H](C)N(C)CC(=O)O)cc2)c1`, for which the IC50 stood at 2.11 µM.

Take `C[C@H](Cc1ccc(OCc2cccc(F)c2)cc1)N(C)CC(=O)O`: the IC50 was determined as 0.869 µM.

As to `CN(CC(=O)O)[C@H](CC#N)Cc1ccc(OCc2ccccc2)cc1`, the IC50 is 0.532 µM.

Turning to `CN(CC(=O)O)[C@H](CO)Cc1ccc(OCc2ccccc2)cc1`, the IC50 came out at 1.01 µM.

For `C[C@H](Cc1ccc(OCc2cc(F)cc(F)c2)cc1)N(C)CC(=O)O`, the IC50 was 0.911 µM.

Regarding `C[C@H](Cc1ccc(OCc2ccccc2Cl)cc1)N(C)CC(=O)O`, the IC50 was determined as 0.713 µM.

For `C[C@H](Cc1ccc(OCc2ccncc2)cc1)N(C)CC(=O)O`, the IC50 was 22 µM.

Take `C[C@H](Cc1ccc(OCc2cccc([N+](=O)[O-])c2)cc1)N(C)CC(=O)O`: the IC50 came out at 4.37 µM.

In the case of `COC(=O)[C@H](Cc1ccc(OCc2ccccc2)cc1)N(C)CC(=O)O`, the IC50 was 7.93 µM.

Take `C[C@H](Cc1ccc(OCc2ccccc2)cc1)N(C)CC(=O)O`: the IC50 came out at 0.894 µM.
